Where “and” joins values, the source holds several entries; their conditions need not be identical. Identical values can stand only once.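 Briefly, cells in 96-well plates were exposed to five compound concentrations for 48 h, and endpoints were estimated by linear interpolation. GI50 is the concentration that inhibits growth by half. TGI: total growth inhibition.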
Legend:
Experiment in all cases: NCI-60 cell line screen, 48 h
ACHN renal = test system: ACHN renal
COLO 205 colon = test system: COLO 205 colon
NCI-H522 lung = test system: NCI-H522 lung
SF-268 CNS = test system: SF-268 CNS
SF-539 CNS = test system: SF-539 CNS
SN12C renal = test system: SN12C renal
UACC-257 melanoma = test system: UACC-257 melanoma
HOP-62 NSCLC = test system: HOP-62 NSCLC
SNB-75 CNS = test system: SNB-75 CNS
NCI/ADR-RES ovarian = test system: NCI/ADR-RES ovarian

Compound | TGI (ACHN renal) | TGI (COLO 205 colon) | TGI (NCI-H522 lung) | TGI (SF-268 CNS) | TGI (SF-539 CNS) | TGI (SN12C renal) | TGI (UACC-257 melanoma) | TGI (HOP-62 NSCLC) | TGI (SNB-75 CNS) | GI50 (ACHN renal) | GI50 (HOP-62 NSCLC) [µM] | GI50 (NCI-H522 lung) [µM] | GI50 (SF-539 CNS) | GI50 (SNB-75 CNS) [µM] | GI50 (UACC-257 melanoma) | GI50 (COLO 205 colon) [µM] | GI50 (NCI/ADR-RES ovarian) [µM] | GI50 (SF-268 CNS) [µM] | GI50 (SN12C renal) [µM]
C#C[C@@]1(O)CCCC2=CC(=O)C[C@]21C | > 100 µM | > 100 µM | > 100 µM | > 100 µM | > 100 µM | > 100 µM | > 100 µM | – | – | – | – | – | – | – | – | – | – | – | –
Oc1ccc2c3c1OC1C(=NN=C4CCC5(O)C6Cc7ccc(O)c8c7C5(CCN6CC5CC5)C4O8)CCC4(O)C(C2)N(CC2CC2)CCC314 (stereo unspecified) | > 100 µM | 38.4 µM | 57.4 µM | > 83.3 µM | > 55.5 µM | > 59.9 µM | 43.1 µM | > 65.7 µM | > 71.8 µM | – | – | – | – | – | – | – | – | – | –
S=P1(c2ccccc2)Nc2ccc(Cl)cc2N1 (stereo unspecified) | > 100 µM | 45.5 µM | > 100 µM | > 100 µM | > 100 µM | – | > 100 µM | > 100 µM | – | – | – | – | – | – | – | – | – | – | –
COc1ccc(NC(=O)COC(=O)c2cccc3c(=O)c4ccccc4[nH]c23)cc1 | 45.6 µM | 33.3 µM | 38.5 µM | 55.2 µM | 37.1 µM | 92.8 µM | 42.7 µM | 55.1 µM | 41.2 µM | – | – | – | – | – | – | – | – | – | –
N#CCCN(CCC#N)c1ccc(/C=N\c2nc(-c3ccccc3)cs2)cc1 | > 100 µM | > 100 µM | > 100 µM | > 100 µM | > 100 µM | > 100 µM | > 100 µM | > 100 µM | > 100 µM | – | – | – | – | – | – | – | – | – | –
CCCCCCCCCCCCCC(=O)OC(/C=C/C(C)C)C(O)C(O)C(OC)C(=O)NC1CCCCNC1=O (stereo unspecified) | 4.76 µM | 3.69 µM | 4.23 µM | 3.63 µM | 5.22 µM | 4.39 µM | 6.5 µM | 6.8 µM | 9.46 µM | 4.1 µM | 3.88 | 5.27 | 2.29 µM | 4.63 | 6.37 µM | – | – | – | –
Cn1cnc([N+](=O)[O-])c1Sc1nc2cccnc2s1 | 80.6 µM | 22.7 µM | – | 69.1 µM | 42 µM | 33.5 µM | 27.9 µM | > 100 µM | 65.8 µM | – | – | – | – | – | – | – | – | – | –
CC1C=CC(C)C2(O)C(=O)NC(O)C12 (stereo unspecified) | > 100 µM | > 100 µM | > 100 µM | > 100 µM | > 100 µM | > 100 µM | > 100 µM | > 100 µM | > 100 µM | – | – | – | – | – | – | – | – | – | –
Cc1ccc(-c2nc3c(C(=O)NCCN(C)C)cccc3[nH]2)cc1 | 28.9 µM | 20.4 µM | – | 48.9 µM | 23 µM | 63.5 µM | 27.5 µM | 36.1 µM | 52.4 µM | – | – | – | – | – | – | – | – | – | –
COc1cc2c(cc1OCCCCCn1c(-c3ccco3)nc3ccccc31)N=C[C@@H]1CCCN1C2=O | – | < 0.01 µM | – | – | < 0.0472 µM | 11.3 µM | < 0.01 µM | 1.1 µM | 0.0334 µM | – | < 0.01 | < 0.01 | < 0.01 µM | < 0.01 | < 0.01 µM | < 0.01 | 0.295 | < 0.01 | < 0.01
N#CCc1ccc(/C(C#N)=C2/OC(=N)C(c3ccc(CC#N)cc3)C2=O)cc1 (stereo unspecified) | > 100 µM | > 100 µM | > 100 µM | > 100 µM | > 100 µM | > 100 µM | > 100 µM | > 100 µM | > 100 µM | – | – | – | – | – | – | – | – | – | –
O=C(Nc1ccc([N+](=O)[O-])cc1C(=O)O)c1ccc([N+](=O)[O-])cc1 | > 100 µM | – | – | > 100 µM | > 100 µM | > 100 µM | > 100 µM | > 100 µM | > 100 µM | – | – | – | – | – | – | – | – | – | –
COc1ccc(/C(=N\O)c2cc(OC)c(OC)c(OC)c2)c(OC)c1N | > 100 µM | 6.5 µM | > 100 µM | > 100 µM | > 100 µM | > 100 µM | – | > 100 µM | – | 7.68 µM | 4.26 | 3.3 | 2.89 µM | – | – | 2.23 | – | 6.5 | 7.9
O=C(CC/C(CC(=O)c1ccc(Cl)cc1)=N/O)Nc1ccc(Cl)c(Cl)c1 | > 100 µM | > 100 µM | > 100 µM | > 100 µM | > 100 µM | > 100 µM | > 100 µM | > 100 µM | > 100 µM | – | – | – | – | – | – | – | – | – | –
CCOC(=O)N[C@H]1CCc2cc(O)c(OC)c(OC)c2-c2ccc(SC)c(=O)cc21 | > 100 µM | 1.22 µM | 0.046 µM | 37.8 µM | 0.044 µM | > 58.9 µM | > 100 µM | > 100 µM | – | – | – | – | – | – | – | – | – | – | –
Cc1cc(Cl)ccc1NC(=O)CC1SC(N)=NC1=O (stereo unspecified) | > 100 µM | > 100 µM | > 100 µM | > 100 µM | > 100 µM | > 100 µM | > 100 µM | > 100 µM | > 100 µM | – | – | – | – | – | – | – | – | – | –
Oc1ccccc1Nc1nc2ccccc2c2occc12 | 17 µM | 26 µM | 24.2 µM | 28.6 µM | 22.1 µM | 23.1 µM | 29.6 µM | 21.7 µM | – | 3.9 µM | 7.69 | 8.36 | 10.4 µM | – | 16.1 µM | 13.3 | – | 8.74 | 11.1
CCC[CH2][Sn]1([CH2]CCC)[O]C(=O)c2cccc(OC)c2[O]1 | 0.753 µM | 1.78 µM | 0.179 µM | 0.841 µM | 1.42 µM | 1.71 µM | 0.537 µM | 3.75 µM | 1.26 µM | 0.271 µM | 2.27 | 0.0386 | 0.387 µM | 0.112 | 0.199 µM | 0.491 | – | 0.194 | 0.47
Cc1ccc(NC(=O)COC(=O)c2cccc3c(=O)c4ccccc4[nH]c23)cc1 | > 100 µM | 77.9 µM | 59.9 µM | > 100 µM | > 100 µM | > 100 µM | > 100 µM | > 100 µM | 94.9 µM | – | – | – | – | – | – | – | – | – | –
O=C1C2C(C(=O)N1c1ccccc1)C1(c3ccccc3)OC2(c2ccccc2)c2ccccc21 (stereo unspecified) | > 100 µM | > 100 µM | > 100 µM | > 100 µM | > 100 µM | > 100 µM | > 100 µM | > 100 µM | > 100 µM | – | – | – | – | – | – | – | – | – | –
C/C=C(\CCC1NCCc2c1[nH]c1ccccc21)[Si](C)(C)C (stereo unspecified) | 25 µM and 8.04 µM | 27.5 µM and 3.26 µM | 27.9 µM and 4.96 µM | 26.2 µM and 23.6 µM | 11.9 µM and 3.09 µM | 11.8 µM and 10.4 µM | 10.7 µM and 3.71 µM | 28.1 µM and 24.5 µM | 14.8 µM and 16.7 µM | 11.4 µM and 2.79 µM | – | – | 6.2 µM and 1.66 µM | – | 5.75 µM and 1.7 µM | – | – | – | –

— PubChem BioAssay (NCI)
